Measurements: patent EP4488269A1, “TRIAZOLE COMPOUNDS FOR THE CONTROL OF INVERTEBRATE PESTS” (BASF SE, priority 2023, dated 2025)

Tests used:
Format in all cases: in vivo
[1] = tested on: tobacco budworm (Heliothis virescens); experiment: Tobacco budworm control (insect diet with eggs, 96-well plates); conditions: for mortality at 2500 ppm: 120 h, egg and larval mortality, 5 days, read-out: mortality in comparison with untreated controls; for mortality at 25 ppm: test B.2, 25 ppm, comparison with prior art, read-out: % mortality in comparison to untreated controls
Method: B.2 Tobacco budworm (Heliothis virescens)
For evaluating control of tobacco budworm (Heliothis virescens), the test unit consisted of 96-well-microtiter plates containing an insect diet and 15-25 H. virescens eggs.
The compounds were formulated using a solution containing 75% v/v water and 25% v/v DMSO. Different concentrations of formulated compounds were sprayed onto the insect diet at 10µl, using a custom-built micro atomizer, at two replications.
After application, microtiter plates were incubated at about 28 ± 1°C and about 80 ± 5 % relative humidity for 5 days. Egg and larval mortality was then visually assessed.

[2] = tested on: boll weevil (Anthonomus grandis); experiment: Boll weevil control (insect diet with eggs, 96-well plates); conditions: 120 h, egg and larval mortality, 5 days, read-out: mortality in comparison with untreated controls
Method: B.3 Boll weevil (Anthonomus grandis)
For evaluating control of boll weevil (Anthonomus grandis), the test unit consisted of 96-well-microtiter plates containing an insect diet and 5-10 A. grandis eggs.
The compounds were formulated using a solution containing 75% v/v water and 25% v/v DMSO. Different concentrations of formulated compounds were sprayed onto the insect diet at 5µl, using a custom-built micro atomizer, at two replications.
After application, microtiter plates were incubated at about 25 ± 1°C and about 75 ± 5 % relative humidity for 5 days. Egg and larval mortality was then visually assessed.

[3] = tested on: yellow fever mosquito (Aedes aegypti); experiment: whole plant or invertebrate; conditions: 48 h, larval mortality, 2 days, read-out: mortality in comparison with untreated controls
Method: B.5 Yellow fever mosquito (Aedes aegypti)
For evaluating control of yellow fever mosquito (Aedes aegypti) the test unit consisted of 96-well-microtiter plates containing 200µl of tap water per well and 5-15 freshly hatched A. aegypti larvae.
The active compounds were formulated using a solution containing 75% (v/v) water and 25% (v/v) DMSO. Different concentrations of formulated compounds or mixtures were sprayed onto the insect diet at 2.5µl, using a custom-built micro atomizer, at two replications.
After application, microtiter plates were incubated at 28 ± 1°C, 80 ± 5 % RH for 2 days. Larval mortality was then visually assessed.

[4] = tested on: green peach aphid (Myzus persicae); experiment: Green peach aphid control through systemic means (artificial diet, 96-well plates); conditions: 72 h, adult aphids on treated diet, 3 days, read-out: mortality in comparison with untreated controls
Description: B.1 Green Peach Aphid (Myzus persicae)
For evaluating control of green peach aphid (Myzus persicae) through systemic means, the test unit consisted of 96-well-microtiter plates containing liquid artificial diet under an artificial mem brane.
The compounds were formulated using a solution containing 75% v/v water and 25% v/v DMSO. Different concentrations of formulated compounds were pipetted into the aphid diet, using a custom built pipetter, at two replications.
After application, 5 - 8 adult aphids were placed on the artificial membrane inside the microtiter plate wells. The aphids were then allowed to suck on the treated aphid diet and incubated at about 23 ± 1°C and about 50 ± 5 % relative humidity for 3 days. Aphid mortality and fecundity was then visually assessed.

[5] = tested on: Southern armyworm (Spodoptera eridania), 2nd instar larvae; experiment: Southern armyworm foliar spray test on lima bean plants; conditions: 96 h, 4 days after treatment, read-out: mortality in comparison with untreated controls
Method: B.4. Southern armyworm (Spodoptera eridania), 2nd instar larvae
The active compounds were formulated by a Tecan liquid handler in 100% cyclohexanone as a 10,000-ppm solution supplied in tubes. The 10,000-ppm solution was serially diluted in 100% cyclohexanone to make interim solutions. These served as stock solutions for which final dilutions were made by the Tecan in 50% acetone:50% water (v/v) into 10 or 20ml glass vials. A non-ionic surfactant (Kinetic®) was included in the solution at a volume of 0.01% (v/v). The vials were then inserted into an automated electrostatic sprayer equipped with an atomizing nozzle for application to plants/insects. Lima bean plants (variety Sieva) were grown 2 plants to a pot and selected for treatment at the 1st true leaf stage. Test solutions were sprayed onto the foliage by an automated electrostatic plant sprayer equipped with an atomizing spray nozzle. The plants were dried in the sprayer fume hood and then removed from the sprayer. Each pot was placed into perforated plastic bags with a zip closure. Ten to 11 armyworm larvae were placed into the bag and the bags zipped closed. Test plants were maintained in a growth room at about 25°C and about 20-40% relative humidity for 4 days, avoiding direct exposure to fluorescent light (14:10 light:dark photoperiod) to prevent trapping of heat inside the bags. Mortality and reduced feeding were assessed 4 days after treatment, compared to untreated control plants.

## CC(NC(=O)c1cc(C(F)(F)F)cc(C(F)(F)F)c1)c1nccnc1-c1ncn(-c2ccccn2)n1 (stereo not drawn) [Compound I-6, N-[1-[3-[1-(2-pyridyl)-1,2,4-triazol-3-yl]pyrazin-2-yl]ethyl]-3,5-bis(trifluoromethyl)benzamide]
[1]
  mortality at 2500 ppm: ≥ 75%
  mortality at 25 ppm: 100%
[2]
  mortality at 2500 ppm: ≥ 75%
[3]
  mortality at 2500 ppm: ≥ 75%
[4]
  mortality at 2500 ppm: ≥ 75%
[5]
  mortality at 300 ppm: ≥ 75%

## CC(NC(=O)c1cc(C(F)(F)F)cc(C(F)(F)F)c1)c1nccnc1-c1ncn(-c2cccnc2)n1 (stereo not drawn) [Compound I-1, N-[1-[3-[1-(3-pyridyl)-1,2,4-triazol-3-yl]pyrazin-2-yl]ethyl]-3,5-bis(trifluoromethyl)benzamide]
[1]
  mortality at 2500 ppm: ≥ 75%
[2]
  mortality at 2500 ppm: ≥ 75%
[3]
  mortality at 2500 ppm: ≥ 75%
[4]
  mortality at 2500 ppm: ≥ 75%
[5]
  mortality at 300 ppm: ≥ 75%

## CC(NC(=O)c1cc(C(F)(F)F)cc(C(F)(F)F)c1)c1nccnc1-c1ncn(-c2cccnc2[N+](=O)[O-])n1 (stereo not drawn) [Compound I-3, N-[1-[3-[1-(2-nitro-3-pyridyl)-1,2,4-triazol-3-yl]pyrazin-2-yl]ethyl]-3,5-bis(trifluoromethyl)benzamide]
[1]
  mortality at 2500 ppm: ≥ 75%
[2]
  mortality at 2500 ppm: ≥ 75%
[5]
  mortality at 300 ppm: ≥ 75%

## CC(NC(=O)c1cc(C(F)(F)F)cc(C(F)(F)F)c1)c1nccnc1-c1ncn(-c2cccnc2Br)n1 (stereo not drawn) [Compound I-4, N-[1-[3-[1-(2-bromo-3-pyridyl)-1,2,4-triazol-3-yl]pyrazin-2-yl]ethyl]-3,5-bis(trifluoromethyl)benzamide]
[1]
  mortality at 2500 ppm: ≥ 75%
[2]
  mortality at 2500 ppm: ≥ 75%
[3]
  mortality at 2500 ppm: ≥ 75%
[4]
  mortality at 2500 ppm: ≥ 75%
[5]
  mortality at 300 ppm: ≥ 75%

## CC(NC(=O)c1cc(C(F)(F)F)cc(C(F)(F)F)c1)c1nccnc1-c1ncn(-c2cccnc2N)n1 (stereo not drawn) [Compound I-2, N-[1-[3-[1-(2-amino-3-pyridyl)-1,2,4-triazol-3-yl]pyrazin-2-yl]ethyl]-3,5-bis(trifluoromethyl)benzamide]
[1]
  mortality at 2500 ppm: ≥ 75%
[2]
  mortality at 2500 ppm: ≥ 75%
[3]
  mortality at 2500 ppm: ≥ 75%
[4]
  mortality at 2500 ppm: ≥ 75%
[5]
  mortality at 300 ppm: ≥ 75%

## CC(NC(=O)c1cc(C(F)(F)F)cc(C(F)(F)F)c1)c1nccnc1-c1ncn(C)n1 (stereo not drawn) [WO2023/025617 I1-12, reference compound]
[1]
  mortality at 25 ppm: 31%

## CC(c1nccnc1-c1ncn(-c2ccccn2)n1)N(C)C(=O)c1cc(C(F)(F)F)cc(C(F)(F)F)c1 (stereo not drawn) [Compound I-17, N-methyl-N-[1-[3-[1-(2-pyridyl)-1,2,4-triazol-3-yl]pyrazin-2-yl]ethyl]-3,5-bis(trifluoromethyl)benzamide]
[1]
  mortality at 2500 ppm: ≥ 75%
[2]
  mortality at 2500 ppm: ≥ 75%
[3]
  mortality at 2500 ppm: ≥ 75%
[4]
  mortality at 2500 ppm: ≥ 75%
[5]
  mortality at 300 ppm: ≥ 75%
